Assays:
[1] = test system: T1, CcOctβ3R; assay: cAMP production in stable CHO-K1 cells (cAMP immunoassay); assay type: cell-based, Cotesia chilonis; details: agonist; 100 μM IBMX; 25 °C
T1 construct: gene Octβ3R; full-length ORF, 358 residues; pcDNA3.0 vector with hemagglutinin A tag

[2] = test system: T2, CcOctβ2R; assay: as above; assay type: cell-based, Cotesia chilonis; details: agonist; 100 μM IBMX; 25 °C
T2 construct: gene Octβ2R; full-length ORF, 435 residues; pcDNA3.0 vector with hemagglutinin A tag
Text: cAMP production in stable CHO-K1 cells (cAMP immunoassay) on CcOctβ2R

[3] = test system: T3, CcOctβ1R; assay: as above; assay type: cell-based, Cotesia chilonis; details: agonist; 100 μM IBMX; 25 °C
T3 construct: gene Octβ1R; full-length ORF, 417 residues; pcDNA3.0 vector with hemagglutinin A tag
Text: cAMP production in stable CHO-K1 cells (cAMP immunoassay) on CcOctβ1R

[4] = test system: T4, CcOctβ2R; details: read-out: CcOctβ2R / IC50; antagonist; non-saturating OA (30 nM); 100 μM IBMX; 25 °C
T4 construct: gene Octβ2R
Text: inhibition of OA-induced cAMP in stable CHO-K1 cells (cAMP immunoassay) on CcOctβ2R

[5] = test system: T5, CcOctβ3R; details: read-out: CcOctβ3R / IC50; antagonist; non-saturating OA (300 nM); 100 μM IBMX; 25 °C
T5 construct: gene Octβ3R
Text: inhibition of OA-induced cAMP in stable CHO-K1 cells (cAMP immunoassay) on CcOctβ3R

[6] = test system: T6, CcOctβ1R; details: read-out: CcOctβ1R / IC50; antagonist; non-saturating OA (100 nM); 100 μM IBMX; 25 °C
T6 construct: gene Octβ1R
Text: inhibition of OA-induced cAMP in stable CHO-K1 cells (cAMP immunoassay) on CcOctβ1R

| SMILES | EC50 [1] | EC50 [2] | EC50 [3] | IC50 [4] | IC50 [5] | IC50 [6] |
| --- | --- | --- | --- | --- | --- | --- |
| c1ccc2c(CC3=NCCN3)cccc2c1 [Naphazoline] | 5.06 nM | 0.0157 nM | 0.231 nM | – | – | – |
| Cc1ccc(/N=C/N(C)/C=N/c2ccc(C)cc2C)c(C)c1 [Amitraz] | – | 3.27 nM | 16.5 nM | – | – | – |
| NC[C@H](O)c1ccc(O)cc1 [OA] | 33.6 nM | 6.69 nM | 39 nM | – | – | – |
| NC1=NCC2c3ccccc3Cc3ccccc3N12 (centres unmarked) [Epinastine] | – | – | – | 14.4 nM | 7.34 nM | 37.6 nM |
| CN=CNc1ccc(C)cc1C [DPMF, N^2-(2,4-dimethylphenyl)-N^1-methyformamidine] | 4.35 nM | 2.37 nM | 9.25 nM | – | – | – |

— paper PMC9740559, “Molecular and Pharmacological Characterization of β-Adrenergic-like Octopamine Receptors in the Endoparasitoid Cotesia chilonis (Hymenoptera: Braconidae)” (International Journal of Molecular Sciences, 2022)
